Our source for the EC50 values is patent publication US11708348B2, “Protease inhibitors for treatment of coronavirus infections” (The Scripps Research Institute, priority 2021, dated 2023).

Each structure is given as a SMILES string.

The test system of the first assay is SARS-CoV-2 strain USA-WA1/2020. Put plainly: microbe, parasite or virus in culture. The class given is cell-based. The settings on record: Severe acute respiratory syndrome coronavirus 2, HeLa-ACE2, 24 h, HeLa-ACE2 cells, SARS-CoV-2 infection, 24 h; bound printed in cell; read-out: EC50, uM (Hela).
Consider `O=C(NC1CCNCC1)C(=O)N[C@@H](CC1CC1)C(=O)N[C@@H](C[C@@H]1CCNC1=O)C(=O)COC(F)(F)F` [Compound 232, N1-((S)-3-cyclopropyl-1-oxo-1-(((S)-3-oxo-1-((S)-2-oxopyrrolidin-3-yl)-4-(trifluoromethoxy)butan-2-yl)amino)propan-2-yl)-N2-(piperidin-4-yl)oxalamide], for which the EC50 was greater than 1 µM.
On the same count and under the same terms, the value for `O=C(NC1CS(=O)(=O)C1)C(=O)N[C@@H](CC1CC1)C(=O)N[C@@H](C[C@@H]1CCNC1=O)C(=O)COC(F)(F)F` [Compound 234, N1-((S)-3-cyclopropyl-1-oxo-1-(((S)-3-oxo-1-((S)-2-oxopyrrolidin-3-yl)-4-(trifluoromethoxy)butan-2-yl)amino)propan-2-yl)-N2-(l,1-dioxidothietan-3-yl)oxalamide] was greater than 1 µM; that for `CC(C)C[C@H](NC(=O)C(N)=O)C(=O)N[C@@H](C[C@@H]1CCNC1=O)C(=O)COC(F)(F)F` [Compound 239, N1-((S)-4-methyl-1-oxo-1-(((S)-3-oxo-1-((S)-2-oxopyrrolidin-3-yl)-4-(trifluoromethoxy)butan-2-yl)amino)pentan-2-yl)oxalamide] was greater than 1 µM.

The same assay, now with this note: Severe acute respiratory syndrome coronavirus 2, HeLa-ACE2, 24 h, HeLa-ACE2 cells, SARS-CoV-2 infection, 24 h; class symbols; read-out: EC50, uM (Hela).
In the case of `CC1(NC(=O)C(=O)N[C@@H](CC2CC2)C(=O)N[C@@H](C[C@@H]2CCNC2=O)C(=O)COC(F)(F)F)CCOCC1` [Compound 222, N1-((S)-3-cyclopropyl-1-oxo-1-(((S)-3-oxo-1-((S)-2-oxopyrrolidin-3-yl)-4-(trifluoromethoxy)butan-2-yl)amino)propan-2-yl)-N2-(4-methyltetrahydro-2H-pyran-4-yl)oxalamide], the EC50 is 0.05 to 0.2 µM.
On the same count and under the same terms, the value for `O=C(N[C@@H](CC1CC1)C(=O)N[C@@H](C[C@@H]1CCNC1=O)C(=O)COC(F)(F)F)c1ncc(-c2ccccc2)[nH]1` [Compound 223, N-((S)-3-cyclopropyl-1-oxo-1-(((S)-3-oxo-1-((S)-2-oxopyrrolidin-3-yl)-4-(trifluoromethoxy)butan-2-yl)amino)propan-2-yl)-5-phenyl-1H-imidazole-2-carboxamide] was less than 0.05 µM; that for `CC(C)C[C@H](NC(=O)c1ncc(-c2ccccc2)[nH]1)C(=O)N[C@@H](C[C@@H]1CCNC1=O)C(=O)COC(F)(F)F` [Compound 224, N-((S)-4-methyl-1-oxo-1-(((S)-3-oxo-1-((S)-2-oxopyrrolidin-3-yl)-4-(trifluoromethoxy)butan-2-yl)amino)pentan-2-yl)-5-phenyl-1H-imidazole-2-carboxamide] was less than 0.05 µM.
On to `CC(C)(C)C[C@H](NC(=O)C(=O)NC12CC(F)(C1)C2)C(=O)N[C@@H](C[C@@H]1CCNC1=O)C(=O)COC(F)(F)F` [Compound 226, N1-((S)-4,4-dimethyl-1-oxo-1-(((S)-3-oxo-1-((S)-2-oxopyrrolidin-3-yl)-4-(trifluoromethoxy)butan-2-yl)amino)pentan-2-yl)-N2-(3-fluorobicyclo[1.1.1]-pentan-1-yl)oxalamide], for which the EC50 is less than 0.05 µM.
Still for that read-out and setting: the value for `O=C(Nc1ccccc1F)C(=O)N[C@@H](CC1CCCC1(F)F)C(=O)N[C@@H](C[C@@H]1CCNC1=O)C(=O)COC(F)(F)F` (stereo partly drawn) [Compound 227, N1-((2S)-3-(2,2-difluoro-cyclopentyl)-1-oxo-1-(((S)-3-oxo-1-((S)-2-oxopyrrolidin-3-yl)-4-(trifluoromethoxy)butan-2-yl)amino)propan-2-yl)-N2-(2-fluorophenyl)-oxalamide] was less than 0.05 µM; that for `COc1cccc2[nH]c(C(=O)N[C@@H](CC(C)C)C(=O)N[C@@H](C[C@@H]3CCCNC3=O)C(=O)COC(F)(F)F)cc12` [Compound 229, 4-methoxy-N-((S)-4-methyl-1-oxo-1-(((S)-3-oxo-1-((S)-2-oxopiperidin-3-yl)-4-(trifluoromethoxy)butan-2-yl)amino)pentan-2-yl)-1H-indole-2-carboxamide] was less than 0.05 µM.
Still for that read-out and setting: the same measure for `CC(C)C[C@H](NC(=O)C(=O)NC1(CO)CC1)C(=O)N[C@@H](C[C@@H]1CCNC1=O)C(=O)COC(F)(F)F` [Compound 231, Nl-(l-(hydroxymethyl)-cyclopropyl)-N2-((S)-4-methyl-1-oxo-1-(((S)-3-oxo-1-((S)-2-oxopyrrolidin-3-yl)-4-(trifluoromethoxy)butan-2-yl)amino)pentan-2-yl)oxalamide]: 0.5 to 1 µM; for `COc1cccc2[nH]c(C(=O)N[C@@H](CCCc3ccccc3)C(=O)N[C@@H](C[C@@H]3CCNC3=O)C(=O)COC(F)(F)F)cc12` [Compound 233, 4-methoxy-N-((S)-1-oxo-1-(((S)-3-oxo-1-((S)-2-oxopyrrolidin-3-yl)-4-(trifluoromethoxy)butan-2-yl)amino)-5-phenylpentan-2-yl)-1H-indole-2-carboxamide]: 0.05 to 0.2 µM; for `COC[C@@H](Nc1ccccc1F)C(=O)N[C@@H](CC(C)C)C(=O)N[C@@H](C[C@@H]1CCNC1=O)C(=O)COC(F)(F)F` [Compound 235, (S)-2-((R)-2-((2-fluorophenyl)amino)-3-methoxypropanamido)-4-methyl-N-((S)-3-oxo-1-((S)-2-oxopyrrolidin-3-yl)-4-(trifluoromethoxy)butan-2-yl)pentanamide]: less than 0.05 µM.
Same read-out and setting: the same measure for `COC[C@H](Nc1ccccc1F)C(=O)N[C@@H](CC(C)C)C(=O)N[C@@H](C[C@@H]1CCNC1=O)C(=O)COC(F)(F)F` [Compound 236, (S)-2-((S)-2-((2-fluorophenyl)amino)-3-methoxypropanamido)-4-methyl-N-((S)-3-oxo-1-((S)-2-oxopyrrolidin-3-yl)-4-(trifluoromethoxy)butan-2-yl)pentanamide]: less than 0.05 µM; for `CC(C)C[C@H](NC(=O)C(=O)NC1(C(F)(F)F)CC1)C(=O)N[C@@H](C[C@@H]1CCNC1=O)C(=O)COC(F)(F)F` [Compound 237, N1-((S)-4-methyl-1-oxo-1-(((S)-3-oxo-1-((S)-2-oxopyrrolidin-3-yl)-4-(trifluoromethoxy)butan-2-yl)amino)pentan-2-yl)-N2-(1-(trifluoromethyl)-cyclopropyl)oxalamide]: less than 0.05 µM; for `COCC1(NC(=O)C(=O)N[C@@H](CC2CC2)C(=O)N[C@@H](C[C@@H]2CCNC2=O)C(=O)COC(F)(F)F)COC1` [Compound 238, N1-((S)-3-cyclopropyl-1-oxo-1-(((S)-3-oxo-1 ((S)-2-oxopyrrolidin-3-yl)-4-(trifluoromethoxy)butan-2-yl)amino)propan-2-yl)-N2-(3-(methoxymethyl)oxetan-3-yl)oxalamide]: 0.2 to 0.5 µM.
Turning to `CC(C)C[C@H](NC(=O)C(=O)NC1CC2(COC2)C1)C(=O)N[C@@H](C[C@@H]1CCNC1=O)C(=O)COC(F)(F)F` [Compound 240, N1-((S)-4-methyl-1-oxo-1-(((S)-3-oxo-1-((S)-2-oxopyrrolidin-3-yl)-4-(trifluoromethoxy)butan-2-yl)amino)pentan-2-yl)-N2-(2-oxaspiro[3.3]heptan-6-yl)oxalamide], the EC50 lay in the range of 0.05 to 0.2 µM.
The same measure, in the same setting: the value for `CC(C)C[C@H](NC(=O)C(=O)NC1CC2(C1)CC(F)(F)C2)C(=O)N[C@@H](C[C@@H]1CCNC1=O)C(=O)COC(F)(F)F` [Compound 241, N1-(6,6-difluorospiro-[3.3]heptan-2-yl)-N2-((S)-4-methyl-1-oxo-1-(((S)-3-oxo-1-((S)-2-oxopyrrolidin-3-yl)-4-(trifluoromethoxy)butan-2-yl)amino)pentan-2-yl)oxalamide] was less than 0.05 µM; that for `COc1cccc(NC(=O)C(=O)N[C@@H](Cc2cccc(F)c2)C(=O)N[C@@H](C[C@@H]2CCNC2=O)C(=O)COC(F)(F)F)c1` [Compound 242, N1-((S)-3-(3-fluorophenyl)-1-oxo-1-(((S)-3-oxo-1-((S)-2-oxopyrrolidin-3-yl)-4-(trifluoromethoxy)butan-2-yl)amino)propan-2-yl)-N2-(3-methoxy-phenyl)oxalamide] was less than 0.05 µM.
The same measure, in the same setting: the value for `O=C(Nc1ccccc1F)C(=O)N[C@@H](Cc1cccc(F)c1)C(=O)N[C@@H](C[C@@H]1CCNC1=O)C(=O)COC(F)(F)F` [Compound 243, N1-(2-fluorophenyl)-N2-((S)-3-(3-fluorophenyl)-1-oxo-1-(((S)-3-oxo-1-((S)-2-oxopyrrolidin-3-yl)-4-(trifluoromethoxy)butan-2-yl)amino)propan-2-yl)oxalamide] was less than 0.05 µM.
With `CC(C)C[C@H](NC(=O)C(=O)NC1COC1)C(=O)N[C@@H](C[C@@H]1CCNC1=O)C(=O)COC(F)(F)F` [Compound 244, N1-((S)-4-methyl-1-oxo-1-(((S)-3-oxo-1-((S)-2-oxopyrrolidin-3-yl)-4-(trifluoromethoxy)butan-2-yl)amino)pentan-2-yl)-N2-(oxetan-3-yl)oxalamide], the EC50 lay in the range of 0.05 to 0.2 µM.
Same read-out and setting: the value for `CC(C)C[C@H](NC(=O)C(=O)NC1(C)CC1)C(=O)N[C@@H](C[C@@H]1CCCNC1=O)C(=O)COC(F)(F)F` [Compound 245, N1-((S)-4-methyl-1-oxo-1-(((S)-3-oxo-1-((S)-2-oxopiperidin-3-yl)-4-(trifluoromethoxy)butan-2-yl)amino)pentan-2-yl)-N2-(1-methylcyclo-propyl)oxalamide] was less than 0.05 µM; that for `CC(C)C[C@H](NC(=O)C(=O)NC(C)(C)C(F)F)C(=O)N[C@@H](C[C@@H]1CCNC1=O)C(=O)COC(F)(F)F` [Compound 246, N1-(1,1-difluoro-2-methylpropan-2-yl)-N2-((S)-4-methyl-1-oxo-1-(((S)-3-oxo-1-((S)-2-oxopyrrolidin-3-yl)-4-(trifluoromethoxy)butan-2-yl)amino)pentan-2-yl)oxalamide] was less than 0.05 µM; that for `CC(C)C[C@H](NC(=O)C1COCCO1)C(=O)N[C@@H](C[C@@H]1CCNC1=O)C(=O)COC(F)(F)F` (stereo partly drawn) [Compound 247, N-((S)-4-methyl-1-oxo-1-(((S)-3-oxo-1-((S)-2-oxopyrrolidin-3-yl)-4-(trifluoromethoxy)butan-2-yl)amino)pentan-2-yl)-1,4-dioxane-2-carboxamide] was 0.05 to 0.2 µM.
On the same count and under the same terms, the same measure for `CC(C)C[C@H](NC(=O)c1cc2ncccc2[nH]1)C(=O)N[C@@H](C[C@@H]1CCNC1=O)C(=O)COC(F)(F)F` [Compound 248, N-((S)-4-methyl-1-oxo-1-(((S)-3-oxo-1-((S)-2-oxopyrrolidin-3-yl)-4-(trifluoromethoxy)butan-2-yl)amino)pentan-2-yl)-1H-pyrrolo[3,2-b]pyridine-2-carboxamide]: 0.2 to 0.5 µM.
